3 molecules from a compilation of properties of binary mixtures (doi:10.1016/j.molliq.2013.09.012) can be followed below.

This series can be described thus: xn = mol fraction of the nth substance listed. The note with it: 298.15 K, 101 kPa.

With `CCCCCC[n+]1ccn(C)c1.F[B-](F)(F)F` + CC(C)(C)O, the viscosity turned out to be 171.8 mPa·s (x2 = 0); 131.4 mPa·s (x2 = 0.1); 115.6 mPa·s (x2 = 0.1449); 49.8 mPa·s (x2 = 0.4008); 34.1 mPa·s (x2 = 0.4992); 23.3 mPa·s (x2 = 0.6009). For the same molecule, the viscosity (x2 = 0.7007) came out at 18 mPa·s and the viscosity (x2 = 0.8983) is given as 11 mPa·s.

For `CC(C)(C)O` + CCCCCC[n+]1ccn(C)c1.F[B-](F)(F)F, the viscosity (x1 = 1) came out at 4.444 mPa·s.

Regarding `CCCN` + CCCCCC[n+]1ccn(C)c1.F[B-](F)(F)F, the viscosity stood at 97.3 mPa·s (x1 = 0.1949); 69.2 mPa·s (x1 = 0.2959); 50.3 mPa·s (x1 = 0.3803); 17.7 mPa·s (x1 = 0.5991); 10.1 mPa·s (x1 = 0.7005); 4.466 mPa·s (x1 = 0.8066). Moreover, the viscosity (x1 = 1) amounted to 0.358 mPa·s.
